Test results published in ChEMBL document CHEMBL1150624, “Discovery of natural products from Curcuma longa that protect cells from beta-amyloid insult: a drug discovery effort against Alzheimer's disease” (2002).
Converted amounts (≈) assume the structure as drawn.

What was measured:
PC-12 [1] = assay: Protection against beta-amyloid (25 to 35) insult in rat PC12 cells assessed as viable cells after 24 hrs by MTT assay; type: functional; conditions: PC-12, 24 h, read-out: ED50 (the source's name)
PC-12 [2] = assay: Protection against beta-amyloid (1 to 42) insult in rat PC12 cells assessed as viable cells after 24 hrs by MTT assay; type: functional; conditions: PC-12, 24 h, read-out: ED50 (the source's name)

| SMILES | EC50 (PC-12 [1]) | EC50 (PC-12 [2]) |
| --- | --- | --- |
| COc1cc(/C=C/C(=O)COC(=O)/C=C/c2ccc(O)c(OC)c2)ccc1O [CALEBI A] | 1 µg/mL (≈ 2.6 µM) | 2 µg/mL (≈ 5.2 µM) |
| Nc1c(/N=N/c2ccc(-c3ccc(/N=N/c4cc(S(=O)(=O)[O-])c5ccccc5c4N)cc3)cc2)cc(S(=O)(=O)[O-])c2ccccc12.[Na+].[Na+] [CONGO RED] | 37.5 µg/mL | 39.2 µg/mL |
| COc1cc(/C=C/C(=O)CC(=O)/C=C/c2ccc(O)c(OC)c2)ccc1O [CURCUMIN] | 7 µg/mL (≈ 19 µM) | 10 µg/mL (≈ 27.1 µM) |
| O=C(/C=C/c1ccc(O)cc1)CC(=O)/C=C/c1ccc(O)cc1 [BISDEMETHOXYCURCUMIN] | 2 µg/mL (≈ 6.49 µM) | 3.5 µg/mL (≈ 11.4 µM) |
| COc1cc(/C=C/C(O)=C/C(=O)/C=C/c2ccc(O)cc2)ccc1O [DEMETHOXYCURCUMIN] | 4 µg/mL (≈ 11.8 µM) | 5 µg/mL (≈ 14.8 µM) |
| COc1cc(/C=C/C(=O)/C=C/c2ccc(O)c(OC)c2)ccc1O | > 50 µg/mL | > 50 µg/mL |
| COc1cc(/C=C/C(=O)CC(=O)CC(O)c2ccc(O)c(OC)c2)ccc1O (stereo not given) | 30.7 µg/mL (≈ 79.5 µM) | 44.3 µg/mL (≈ 115 µM) |
| O=C(/C=C/C=C/c1ccc(O)cc1)/C=C/c1ccc(O)cc1 | > 50 µg/mL | > 50 µg/mL |
| O=C(/C=C/c1ccc(O)cc1)CC(=O)CCc1ccc(O)cc1 | 0.5 µg/mL (≈ 1.61 µM) | 1 µg/mL (≈ 3.22 µM) |
| COc1cc(/C=C/C=C/C(=O)/C=C/c2ccc(O)c(OC)c2)ccc1O | > 50 µg/mL | > 50 µg/mL |
